Data as given in patent publication US4870002A, “Method of prevention of oxidative injury to cells” (priority 1985, dated 1989).

Legend:
[1] = test system: human KBE epidermoid carcinoma cells; test: Survival after gamma irradiation by colony formation; format: cell-based; settings: for radioprotection, in words: low dose
Method: In those experiments performed with media containing phenol red, this medium was replaced (in
each flask) with 10 ml of fresh medium; the flasks were then reincubated at 37° C. for 1 hour. After this time, under yellow light, 0.05 ml aliquots of distilled water or solutions of 3-aminotyrosine were injected to give 1:200 dilutions. […] Flasks were irradiated at 0, 250, 500, or 1000 rads at room temperature as previously described. Efforts were made to keep light exposure to a minimum. For those flasks irradiated for 8 min (10 Gy), the temperature in the flasks would decrease during that interval to 30° C.
Immediately after the irradiations were complete, the attached cells were washed two times with Saline A salt solution, the trypsinized using standard procedures with 1.5 ml of trypsin-EDTA (GIBCO 610-5300). The cells were declumped after inactivation of the trypsin with fresh medium, and the cell density determined by Coulter counter. Cell dilutions of appropriate densities were made with fresh medium in sterile plastic conical centrifuge tubes, and 5 ml aliquots were seeded at two different dilutions for each treatment flask into fresh T-25 flasks (4 replicate flasks at each cell dilution). The flasks were all incubated for 7 days, at which time the old medium was aspirated and the cells were fixed in situ with 100% methanol. The colonies were then stained with 0.3% methylene blue, and rinsed with distilled water. After air drying, colonies greater than 1 mm in diameter were scored as viable colonies. The cloning efficiency in each flask was determined as described for the L5178Y cells above.
In one experiment, treatment with 3-aminotyrosine was performed using custom formulated Earle's BME medium without phenol red (GIBCO 85-0078). Prior to addition of 3-aminotyrosine, cells were washed free of the standard growth medium using Saline A without phenol red.

[2] = test system: L5178Y murine lymphosarcoma cells; test: Survival after gamma irradiation by colony formation in soft agar; format: cell-based
Method: The remainder of the cell suspension after irradiation was used for determination of survival by colony formation in soft agar. For each dose, based on estimated survival probability, different numbers of cells were distributed in soft agar suspension (0.4% DIFCO Noble Agar) into 100 mm petri dishes. The dishes were briefly chilled to gel the agar, and then after brief warming in the laminar flow hood, placed in the 37° C. humidified CO2 incubator. The dishes were incubated for 11 days, and the number of colonies were determined using an Artek Automatic Colony Counter.
For the control and each 3-aminotyrosine and radiation dose, the percent cloning efficiency (% CE) was determined by dividing the number of colonies counted at 11 days by the number of cells seeded into the agar, times 100. The 0 dose % CE value was taken to be 100% survival for that chemical. The percent (%) survival reported was calculated by dividing the % CE after a given dose of radiation by the 0 dose % CE, times 100.
THMG/THG treated L5178Y cells were mass cultured and the cell density determined. Aliquots of the cell suspension with enough cells to give 300,000 cells per ml in 60 ml (1.8×10^7 cells) were distributed into three 50 ml centrifuge tubes, and after centrifugation, the original growth medium was discarded. The cells were resuspended in GIBCO custom formulation medium which had been prepared without phenol red. The cells were then washed one more time by centrifugation and resuspended again in 10 ml of the phenol red-free medium. These 10 ml suspensions of cells containing 1.8×10^7 cells were then transferred into three flasks already containing 50 ml of phenol red-free medium, distilled water, and either 100 nanomoles/ml or 2 micromoles/ml solutions of 3-aminotyrosine. The exposure system was treated as light sensitive (i.e., procedures were performed under gold light or reduced lighting).
Immediately after irradiation was completed, the cells were centrifuged, washed twice with F10p, and resuspended in 10 ml of F10p. The cell density was again determined by Coulter counter. […] After 11 days incubation at 37° C., colonies were counted and cell survival was determined.

[3] = Zero hour incubation, 250 rads, 2 micromoles/ml
[4] = Zero hour incubation, 250 rads, 100 nanomoles/ml
[5] = Zero hour incubation, 500 rads, 2 micromoles/ml
[6] = Zero hour incubation, 500 rads, 100 nanomoles/ml
[7] = Zero hour incubation, 1000 rads, 2 micromoles/ml
[8] = Zero hour incubation, 1000 rads, 100 nanomoles/ml

Nc1cc(C[C@H](N)C(=O)O)ccc1O [3-aminotyrosine, 3-amino-L-tyrosine]
Ratio of Percent Survival, 3-Aminotyrosine/Control ([1]; Twenty-Four Hour Incubation (No Phenol Red), 250 rads, 2 micromoles/ml): 1.08 | Ratio of Percent Survival, 3-Aminotyrosine/Control ([1]; Twenty-Four Hour Incubation (No Phenol Red), 250 rads, 100 nanomoles/ml): 0.79 | Ratio of Percent Survival, 3-Aminotyrosine/Control ([1]; Twenty-Four Hour Incubation (No Phenol Red), 500 rads, 2 micromoles/ml): 1.49 | Ratio of Percent Survival, 3-Aminotyrosine/Control ([1]; Twenty-Four Hour Incubation (No Phenol Red), 500 rads, 100 nanomoles/ml): 0.48 | Ratio of Percent Survival, 3-Aminotyrosine/Control ([1]; Twenty-Four Hour Incubation (No Phenol Red), 1000 rads, 2 micromoles/ml): 2.61 | Ratio of Percent Survival, 3-Aminotyrosine/Control ([1]; Twenty-Four Hour Incubation (No Phenol Red), 1000 rads, 100 nanomoles/ml): 2.32 | Ratio of Percent Survival, 3-Aminotyrosine/Control ([1]; Twenty-Four Hour Incubation (Phenol Red Present), 250 rads, 2 micromoles/ml): 1.28 | Ratio of Percent Survival, 3-Aminotyrosine/Control ([1]; Twenty-Four Hour Incubation (Phenol Red Present), 250 rads, 100 nanomoles/ml): 1.53 | Ratio of Percent Survival, 3-Aminotyrosine/Control ([1]; Twenty-Four Hour Incubation (Phenol Red Present), 500 rads, 2 micromoles/ml): 2.91 | Ratio of Percent Survival, 3-Aminotyrosine/Control ([1]; Twenty-Four Hour Incubation (Phenol Red Present), 500 rads, 100 nanomoles/ml): 1.36 | Ratio of Percent Survival, 3-Aminotyrosine/Control ([1]; Twenty-Four Hour Incubation (Phenol Red Present), 1000 rads, 2 micromoles/ml): 4.65 | Ratio of Percent Survival, 3-Aminotyrosine/Control ([1]; Twenty-Four Hour Incubation (Phenol Red Present), 1000 rads, 100 nanomoles/ml): 1.63 | Ratio of Percent Survival, 3-Aminotyrosine/Control [1, 3]: 1.70 | Ratio of Percent Survival, 3-Aminotyrosine/Control [1, 4]: 0.94 | Ratio of Percent Survival, 3-Aminotyrosine/Control [1, 5]: 1.25 | Ratio of Percent Survival, 3-Aminotyrosine/Control [1, 6]: 0.81 | Ratio of Percent Survival, 3-Aminotyrosine/Control [1, 7]: 2.26 | Ratio of Percent Survival, 3-Aminotyrosine/Control [1, 8]: 0.99 | effect on survival after irradiation, in words ([1]; high concentration, added 24 hours prior to exposure, medium containing phenol red): radioprotective effect | radioprotection, in words ([1]; 10 minute preincubations (0 hours)): no radioprotection | radioprotection, in words ([1]; pre-incubation for 24 hours): low-dose radioprotection | Ratio of Percent Survival, 3-Aminotyrosine/Control ([2]; Sixteen hour incubation, 250 rads, 1000 cells seeded, 2 micromoles/ml): 0.84 | Ratio of Percent Survival, 3-Aminotyrosine/Control ([2]; Sixteen hour incubation, 250 rads, 1000 cells seeded, 100 nanomoles/ml): 0.81 | Ratio of Percent Survival, 3-Aminotyrosine/Control ([2]; Sixteen hour incubation, 250 rads, 2000 cells seeded, 2 micromoles/ml): 0.94 | Ratio of Percent Survival, 3-Aminotyrosine/Control ([2]; Sixteen hour incubation, 250 rads, 2000 cells seeded, 100 nanomoles/ml): 0.85 | Ratio of Percent Survival, 3-Aminotyrosine/Control ([2]; Sixteen hour incubation, 500 rads, 1000 cells seeded, 2 micromoles/ml): 1.20 | Ratio of Percent Survival, 3-Aminotyrosine/Control ([2]; Sixteen hour incubation, 500 rads, 1000 cells seeded, 100 nanomoles/ml): 0.63 | Ratio of Percent Survival, 3-Aminotyrosine/Control ([2]; Sixteen hour incubation, 500 rads, 2000 cells seeded, 2 micromoles/ml): 1.59 | Ratio of Percent Survival, 3-Aminotyrosine/Control ([2]; Sixteen hour incubation, 500 rads, 2000 cells seeded, 100 nanomoles/ml): 0.98 | Ratio of Percent Survival, 3-Aminotyrosine/Control ([2]; Sixteen hour incubation, 1000 rads, 2.5 × 10^5 cells seeded, 2 micromoles/ml): 1.95 | Ratio of Percent Survival, 3-Aminotyrosine/Control ([2]; Sixteen hour incubation, 1000 rads, 2.5 × 10^5 cells seeded, 100 nanomoles/ml): 4.91 | Ratio of Percent Survival, 3-Aminotyrosine/Control ([2]; Sixteen hour incubation, 1000 rads, 5.0 × 10^5 cells seeded, 2 micromoles/ml): 3.22 | Ratio of Percent Survival, 3-Aminotyrosine/Control ([2]; Sixteen hour incubation, 1000 rads, 5.0 × 10^5 cells seeded, 100 nanomoles/ml): 1.27 | Ratio of Percent Survival, 3-Aminotyrosine/Control [2, 3]: 0.89 | Ratio of Percent Survival, 3-Aminotyrosine/Control [2, 4]: 0.85 | Ratio of Percent Survival, 3-Aminotyrosine/Control [2, 5]: 0.63 | Ratio of Percent Survival, 3-Aminotyrosine/Control [2, 6]: 0.70 | Ratio of Percent Survival, 3-Aminotyrosine/Control [2, 7]: 0.51 | Ratio of Percent Survival, 3-Aminotyrosine/Control [2, 8]: 0.56 | effect on cell survival after irradiation, in words ([2]; cells preincubated for 16 hours): protective of cell survival
